The values that follow come from ChEMBL document CHEMBL5724696, “Autophagy assay results for EUbOPEN Chemogenomics Library” (2024).

The structures appear in SMILES notation. Several values for one entry are separate records, joined by “and”; a condition that tells them apart may be missing. Equal values may be shown once.

Experiment [1] relates to U2OS. Kind of experiment: (§1) Here: values are normalized to the positive (DMSO; basel flux = defined as 100% suppression) and negative (250nM Torin1; mTOR inhibitor; maximal inducer of autophagy defined as 0% suppression) control compounds and represented as % of ER-phagy suppression. […] The impact of autophagy induction on cells is complex and depends on the affected target. […] Of note, treatment concentrations may be sub-optimal for specific compounds, leading to false negative annotations. It counts as functional, Homo sapiens. As to conditions: Compound Concentration 1 uM, Culturing Media DMEM, 1 % Penicillin/Streptomycin, 10% Fetal bovin serum Add-On: blasticidin, Screening Media Control DMEM, 10% Fetal bovin serum Add-On: 1 µg/ml Doxycyclin, Screening Media Samples DMEM.

Experiment [2] concerns U2OS. Described as §1. It counts as functional, Homo sapiens. As to conditions: Compound Concentration 1 uM, Culturing Media DMEM, 1 % Penicillin/Streptomycin, 10% Fetal bovin serum Add-On: blasticidin, Screening Media Control DMEM, 10% Fetal bovin serum Add-On: 1 µg/ml Doxycyclin, Screening Media Samples DMEM. The source holds these as a separate data set.
The mark [3] stands for this setting: Timepoint 12 hours, 10% Fetal bovin serum Add-On: 1 µg/ml Doxycyclin 250nM Torin1.
Setting [4] is: Timepoint 24 hours, 10% Fetal bovin serum Add-On: 1 µg/ml Doxycyclin 250nM Torin1.
[5] abbreviates: Timepoint 36 hours, 10% Fetal bovin serum Add-On: 1 µg/ml Doxycyclin 250nM Torin1.
Setting [6] is: Timepoint 54 hours, 10% Fetal bovin serum Add-On: 1 µg/ml Doxycyclin 250nM Torin1.
Where [7] appears, read: Timepoint 60 hours, 10% Fetal bovin serum Add-On: 1 µg/ml Doxycyclin 250nM Torin1.
Setting [8] is: Timepoint 12 hours, 10% Fetal bovin serum Add-On: 1 µg/ml Doxycyclin 250nM Torin1, 12 h, 1 µM.
Where [9] appears, read: Timepoint 24 hours, 10% Fetal bovin serum Add-On: 1 µg/ml Doxycyclin 250nM Torin1, 24 h, 1 µM.
Setting [10] is: Timepoint 36 hours, 10% Fetal bovin serum Add-On: 1 µg/ml Doxycyclin 250nM Torin1, 36 h, 1 µM.
The mark [11] stands for this setting: Timepoint 54 hours, 10% Fetal bovin serum Add-On: 1 µg/ml Doxycyclin 250nM Torin1, 54 h, 1 µM.
The mark [12] stands for this setting: Timepoint 60 hours, 10% Fetal bovin serum Add-On: 1 µg/ml Doxycyclin 250nM Torin1, 60 h, 1 µM.

Take `COc1cc(Nc2nc(C)cc(-c3cnn4nc(OC)ccc34)n2)cc(C(F)(F)F)c1`: the ER-phagy suppression in the experiment with U2OS [1] (setting [3]) was -17.1977%; in the experiment with U2OS [1] (setting [4]) it was -30.7%; in the experiment with U2OS [1] (setting [5]) it was -31.3882%; in the experiment with U2OS [1] (setting [6]), -33.2663%; in the experiment with U2OS [2] (setting [3]), -18.8933%; in the experiment with U2OS [2] (setting [4]) it was -32.8701%. The ER-phagy suppression is given as -15.1622% in the experiment with U2OS [2] (setting [5]) and -1.233% in the experiment on U2OS [2] (setting [7]).
Take `CCC(=O)Nc1cc(Nc2cc(NC3CC3)n3ncc(C#N)c3n2)ccc1C`: the ER-phagy suppression with U2OS [1] (setting [8]) was 67.8996% and 33.7182%; with U2OS [1] (setting [9]) it was 72.4419% and 40.8117%; with U2OS [1] (setting [10]) it was 80.6378% and 60.338%; in the experiment on U2OS [1] (setting [11]) it was 84.9565% and 68.6565%; with U2OS [2] (setting [8]) it was 25.0893% and 12.0462%; with U2OS [2] (setting [9]) it was 43.9531% and 30.6203%. The ER-phagy suppression in the experiment on U2OS [2] (setting [10]) is 57.0471% and 46.34%; in the experiment with U2OS [2] (setting [12]) it was 65.9791% and 54.7573%.
Turning to `CN(C)C/C=C/C(=O)Nc1cc2c(Nc3ccc(F)c(Cl)c3)ncnc2cc1O[C@H]1CCOC1` [AFATINIB], the ER-phagy suppression with U2OS [1] (setting [3]) was -20.9199%; in the experiment with U2OS [1] (setting [4]), -7.924%; in the experiment on U2OS [1] (setting [5]) it was -3.193%; in the experiment on U2OS [1] (setting [6]), 3.819%; in the experiment on U2OS [2] (setting [3]), 20.6411%; with U2OS [2] (setting [4]), 25.6226%. For the same molecule, the ER-phagy suppression is listed as 22.4767% in the experiment with U2OS [2] (setting [5]) and 26.9133% in the experiment on U2OS [2] (setting [7]).
Regarding `COc1cc(Nc2ncc3c(n2)-c2ccc(Cl)cc2C(c2c(F)cccc2OC)=NC3)ccc1C(=O)O` [ALISERTIB], the ER-phagy suppression in the experiment on U2OS [1] (setting [8]) is 17.2717% and 22.6318%; in the experiment with U2OS [1] (setting [9]), 12.1028% and 15.999%; in the experiment on U2OS [1] (setting [10]), -4.94% and 1.582%; in the experiment on U2OS [1] (setting [11]), 5.417% and 8.819%; with U2OS [2] (setting [8]) it was 32.5772% and 15.1943%; with U2OS [2] (setting [9]), 46.3416% and 31.463%. For the same molecule, the ER-phagy suppression in the experiment on U2OS [2] (setting [10]) was 37.5206% and 17.8935%; in the experiment with U2OS [2] (setting [12]) it was 42.3508% and 18.9115%.
As for `Cc1cnc(-c2cc(Cl)ccc2F)cc1-n1c(=O)n(CC(N)=O)c2ccccc21` [Al11], the ER-phagy suppression in the experiment with U2OS [1] (setting [3]) is -9.163%; with U2OS [1] (setting [4]) it was -26.2915%; in the experiment on U2OS [1] (setting [5]), -35.1418%; with U2OS [1] (setting [6]), -38.7834%; in the experiment with U2OS [2] (setting [3]), -12.5733%; in the experiment on U2OS [2] (setting [4]), -18.3016%. Also, the figures for the ER-phagy suppression with U2OS [2] (setting [5]) and in the experiment on U2OS [2] (setting [7]) were -21.1778% and -20.9921%, respectively.
Take `Cc1cc(NC(=O)c2cccc(S(F)(F)(F)(F)F)c2)cc(-n2ccn3nc(-c4cccnc4)cc23)c1` [BAY-309]: the ER-phagy suppression with U2OS [1] (setting [3]) was 7.105%; with U2OS [1] (setting [4]), -8.178%; in the experiment on U2OS [1] (setting [5]) it was -9.412%; with U2OS [1] (setting [6]) it was -2.397%; in the experiment on U2OS [2] (setting [3]), 7.299%; with U2OS [2] (setting [4]), 1.781%. Besides, the ER-phagy suppression in the experiment on U2OS [2] (setting [5]) is reported as 3.502%; in the experiment with U2OS [2] (setting [7]), -2.656%.
With `CC1=C(C#N)C(c2ccc3[nH]nc(C)c3c2)C(C#N)=C(C)N1` [BAY-474], the ER-phagy suppression is recorded as -13.4419% in the experiment with U2OS [1] (setting [3]); -18.7669% in the experiment on U2OS [1] (setting [4]); -19.5327% in the experiment on U2OS [1] (setting [5]); -10.8689% in the experiment with U2OS [1] (setting [6]); -4.1838% with U2OS [2] (setting [3]); 7.362% in the experiment with U2OS [2] (setting [4]). The ER-phagy suppression in the experiment on U2OS [2] (setting [5]) was 15.2848%; in the experiment on U2OS [2] (setting [7]), 16.6513%.
With `Cc1cc(C)c(-n2ccn3nc(-c4cccnc4)cc23)cc1NC(=O)c1cc(C#N)cc(S(F)(F)(F)(F)F)c1` [BAY-826], the ER-phagy suppression with U2OS [1] (setting [3]) turned out to be 21.4229%; in the experiment on U2OS [1] (setting [4]), 9.146%; in the experiment with U2OS [1] (setting [5]), 4.6%; in the experiment on U2OS [1] (setting [6]), 19.8518%; in the experiment with U2OS [2] (setting [3]) it was 10.7254%; with U2OS [2] (setting [4]) it was 6.3786%. In addition, the ER-phagy suppression came out at 7.428% in the experiment on U2OS [2] (setting [5]) and 6.537% with U2OS [2] (setting [7]).
Take `CC1=C(C#N)[C@@H](c2ccc3[nH]nc(C)c3c2)C(C#N)=C(c2ccc(Cl)cc2)N1` [BAY-827]: the ER-phagy suppression is -1.516% in the experiment with U2OS [1] (setting [3]); -21.7023% in the experiment with U2OS [1] (setting [4]); -24.9956% in the experiment with U2OS [1] (setting [5]); -14.7052% in the experiment with U2OS [1] (setting [6]); -21.2779% with U2OS [2] (setting [3]); -26.9283% in the experiment on U2OS [2] (setting [4]). Further, the ER-phagy suppression in the experiment on U2OS [2] (setting [5]) is given as -30.4241%; with U2OS [2] (setting [7]), -34.9366%.
For `CNCc1ccc(-c2cc(-c3nc(-c4ccc(S(=O)(=O)C(C)C)cc4)cnc3N)on2)cc1` [BERZOSERTIB], the ER-phagy suppression in the experiment on U2OS [1] (setting [3]) turned out to be 54.7938%; with U2OS [1] (setting [4]), 32.6309%; with U2OS [1] (setting [5]), 31.7276%; with U2OS [1] (setting [6]) it was 38.9692%; with U2OS [2] (setting [3]), 117.5%; with U2OS [2] (setting [4]), 96.408%. For the same molecule, the figures for the ER-phagy suppression in the experiment with U2OS [2] (setting [5]) and in the experiment with U2OS [2] (setting [7]) were 85.8575% and 85.0285%, respectively.
Take `C[C@@H]1COCCN1c1cc(C2([S@](C)(=N)=O)CC2)nc(-c2cc[nH]c3nccc2-3)n1` [CERALASERTIB]: the ER-phagy suppression with U2OS [1] (setting [3]) is given as 5.203%; in the experiment on U2OS [1] (setting [4]) it was -10.6428%; in the experiment with U2OS [1] (setting [5]) it was -11.7869%; in the experiment with U2OS [1] (setting [6]), -16.7098%; in the experiment with U2OS [2] (setting [3]) it was -20.381%; in the experiment on U2OS [2] (setting [4]), -14.6462%. The ER-phagy suppression is given as -13.688% in the experiment with U2OS [2] (setting [5]) and -10.6655% with U2OS [2] (setting [7]).
Take `CNC(=O)c1ccc(Nc2ncc(C(F)(F)F)c(NCc3nccnc3N(C)S(C)(=O)=O)n2)cc1` [DEFACTINIB]: the ER-phagy suppression is 6.334% and 17.6982% in the experiment with U2OS [1] (setting [8]); -6.042% and 9.811% in the experiment on U2OS [1] (setting [9]); -8.211% and 10.8271% with U2OS [1] (setting [10]); -10.5841% and -8.687% in the experiment on U2OS [2] (setting [8]); -22.8017% and 1.862% in the experiment with U2OS [2] (setting [10]); -7.812% and 1.51% with U2OS [2] (setting [12]).
Turning to `CCN(CCO)CCCOc1ccc2c(Nc3cc(CC(=O)Nc4cccc(F)c4)[nH]n3)ncnc2c1` [DEFOSBARASERTIB], the ER-phagy suppression with U2OS [1] (setting [8]) is -1.417% and 3.579%; in the experiment with U2OS [1] (setting [9]), -12.3988% and -4.272%; in the experiment on U2OS [1] (setting [10]), -12.8875% and -11.7769%; with U2OS [1] (setting [11]) it was -17.4995% and -20.4042%; with U2OS [2] (setting [12]), 14.0476% and -1.761%.
Turning to `CN1CCN(Cc2ccc(Nc3ncc(Cl)c(Nc4ccccc4S(=O)(=O)N(C)C)n3)cc2)CC1` [DUBERMATINIB], the ER-phagy suppression in the experiment on U2OS [1] (setting [3]) is given as -2.878%; with U2OS [1] (setting [4]) it was -1.86%; with U2OS [1] (setting [5]), 7.295%; with U2OS [1] (setting [6]) it was 21.9101%; in the experiment on U2OS [2] (setting [3]), -20.0629%; with U2OS [2] (setting [4]) it was 4.178%. In addition, the ER-phagy suppression is given as 12.5384% in the experiment with U2OS [2] (setting [5]) and 29.2244% with U2OS [2] (setting [7]).
